Assay results from patent US20240150334A1, “HSD17B13 INHIBITORS AND/OR DEGRADERS” (Pfizer Inc., priority 2022, published 2024).
Structures can show the parent of a compound that is named as a salt.

These molecules were tested against wild type human HSD17B13 (Homo sapiens (Human), UniProt Q7Z5P4) (assay: HEK_Beta-Est LCMS_IC50_Tekcel, whole-cell HEK-HSD17B13 inhibition assay, estrone production by LCMS). Conditions: geometric mean, HEK cells stably expressing wild type human HSD17B13, 25 μM FAC beta-estradiol, read-out: HEK_Beta-Est LCMS_IC50—Tekcel GMean IC50.
Assay type: cell-based
Procedure: HEK_Beta-Est LCMS_IC50_Tekcel
Inhibition potency of test compounds was determined using a whole-cell HEK-HSD17B13 inhibition assay, utilizing a LCMS readout.
HSD17B13 uses the oxidized form of nicotinamide adenine dinucleotide (NAD+) as a cofactor during metabolism of beta-estradiol (substrate), converting NAD+ to the reduced form (NADH) and beta-estradiol to its product (estrone). Estrone production is quantified by LCMS, and used as a measure of HSD17B13 enzyme activity.
([…]: 5% CO2). […] Growth media was then removed from the cell plates and replaced with 10 μL of 2×FAC test compound, and incubated for 1 hour (with lid) at 37° C. […] The reaction was incubated for 2 hours (with lid) at 37° C. […] Amount of product (estrone) was then quantified by LCMS. Data expressed as product area ratio (PAR) were then normalized to control wells using Activity Base (IDBS). Zero percent effect (ZPE) was defined as PAR generated from uninhibited HSD17B13 (vehicle control).

Sequence of wild type human HSD17B13 (Q7Z5P4 20-300): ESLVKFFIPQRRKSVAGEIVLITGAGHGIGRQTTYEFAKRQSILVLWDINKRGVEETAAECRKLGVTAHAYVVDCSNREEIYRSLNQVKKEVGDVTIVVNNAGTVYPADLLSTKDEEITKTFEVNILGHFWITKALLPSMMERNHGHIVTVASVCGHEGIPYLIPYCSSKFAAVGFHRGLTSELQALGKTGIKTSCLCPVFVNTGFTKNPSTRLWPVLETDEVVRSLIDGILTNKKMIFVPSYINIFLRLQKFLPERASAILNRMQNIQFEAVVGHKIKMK

SMILES	IC50
O=C(NC[C@H]1CC[C@H](n2cc3ccc(-c4nccs4)cc3n2)CC1)c1cc(F)c(O)c(F)c1 [Example 110, 3,5-difluoro-4-hydroxy-N-({(1r,4r)-4-[6-(1,3-thiazol-2-yl)-2H-indazol-2-yl]cyclohexyl}methyl) benzamide]	0.11 µM
O=C(NC[C@H]1CC[C@H](n2cc3ccc(-c4cnoc4)cc3n2)CC1)c1cc(F)c(O)c(F)c1 [Example 111, 3,5-difluoro-4-hydroxy-N-({(1r,4r)-4-[6-(1,2-oxazol-4-yl)-2H-indazol-2-yl]cyclohexyl}methyl) benzamide]	0.081 µM
O=C(NC[C@H]1CC[C@H](n2cc3ccc(-c4cnc5[nH]ccc5c4)cc3n2)CC1)c1cc(F)c(O)c(F)c1 [Example 112, 3,5-difluoro-4-hydroxy-N-({(1r,4r)-4-[6-(1H-pyrrolo[2,3-b]pyridin-5-yl)-2H-indazol-2-yl]cyclohexyl}methyl) benzamide, trifluoroacetate salt]	0.22 µM
O=C(NC[C@H]1CC[C@H](n2cc3ccc(-c4cccn5ncnc45)cc3n2)CC1)c1cc(F)c(O)c(F)c1 [Example 113, 3,5-difluoro-4-hydroxy-N-({(1r,4r)-4-[6-([1,2,4]triazolo[1,5-a]pyridin-8-yl)-2H-indazol-2-yl]cyclohexyl}methyl) benzamide, trifluoroacetate salt]	0.32 µM
O=C(NC[C@H]1CC[C@H](n2cc3ccc(-c4csc(N5CCOCC5)n4)cc3n2)CC1)c1cc(F)c(O)c(F)c1 [Example 114, 3,5-difluoro-4-hydroxy-N-{[(1r,4r)-4-{6-[2-(morpholin-4-yl)-1,3-thiazol-4-yl]-2H-indazol-2-yl}cyclohexyl]methyl} benzamide]	0.17 µM
Cc1cnc(-c2ccc3cn([C@H]4CC[C@H](CNC(=O)c5cc(F)c(O)c(F)c5)CC4)nc3c2)s1 [Example 115, 3,5-difluoro-4-hydroxy-N-({(1r,4r)-4-[6-(5-methyl-1,3-thiazol-2-yl)-2H-indazol-2-yl]cyclohexyl}methyl) benzamide]	0.19 µM
COc1cccc(-c2ccc3cn([C@H]4CC[C@H](CNC(=O)c5cc(F)c(O)c(F)c5)CC4)nc3c2)n1 [Example 116, 3,5-difluoro-4-hydroxy-N-({(1r,4r)-4-[6-(6-methoxy-pyridin-2-yl)-2H-indazol-2-yl]cyclohexyl}methyl) benzamide, trifluoroacetate salt]	0.19 µM
O=C(NC[C@H]1CC[C@H](n2cc3ccc(-c4ccn5ccnc5c4)cc3n2)CC1)c1cc(F)c(O)c(F)c1 [Example 117, 3,5-difluoro-4-hydroxy-N-({(1r,4r)-4-[6-(imidazo[1,2-a]pyridin-7-yl)-2H-indazol-2-yl]cyclohexyl}methyl) benzamide, trifluoroacetate salt]	0.18 µM
Cc1cccc(-c2ccc3cn([C@H]4CC[C@H](CNC(=O)c5cc(F)c(O)c(F)c5)CC4)nc3c2)n1 [Example 118, 3,5-difluoro-4-hydroxy-N-({(1r,4r)-4-[6-(6-methylpyridin-2-yl)-2H-indazol-2-yl]cyclohexyl}methyl) benzamide, trifluoroacetate salt]	0.23 µM
O=C(NC[C@H]1CC[C@H](n2cc3ccc(-c4ccn5ncnc5c4)cc3n2)CC1)c1cc(F)c(O)c(F)c1 [Example 119, 3,5-difluoro-4-hydroxy-N-({(1r,4r)-4-[6-([1,2,4]triazolo[1,5-a]pyridin-7-yl)-2H-indazol-2-yl]cyclo-hexyl}methyl) benzamide, trifluoroacetate salt]	0.15 µM
COc1cncc(-c2ccc3cn([C@H]4CC[C@H](CNC(=O)c5cc(F)c(O)c(F)c5)CC4)nc3c2)c1 [Example 120, 3,5-difluoro-4-hydroxy-N-({(1r,4r)-4-[6-(5-methoxypyridin-3-yl)-2H-indazol-2-yl]cyclohexyl}methyl) benzamide, trifluoroacetate salt]	0.25 µM
CC(C)c1ncc(-c2ccc3cn([C@H]4CC[C@H](CNC(=O)c5cc(F)c(O)c(F)c5)CC4)nc3c2)o1 [Example 121, 3,5-difluoro-4-hydroxy-N-{[(1r,4r)-4-{6-[2-(propan-2-yl)-1,3-oxazol-5-yl]-2H-indazol-2-yl}cyclohexyl]methyl} benzamide]	0.15 µM

Results, then the molecule that gave them:

IC50	SMILES
0.47 µM	O=C(NC[C@H]1CC[C@H](c2nc(-c3cnc(C(F)(F)F)cn3)no2)CC1)c1cc(F)c(O)c(F)c1F [Example 148, 2,3,5-trifluoro-4-hydroxy-N-{[(1r,4r)-4-{3-[5-(trifluoromethyl)pyrazin-2-yl]-1,2,4-oxadiazol-5-yl}cyclohexyl]methyl} benzamide]
0.43 µM	O=C(NC[C@H]1CC[C@H](c2nc(-c3cnc(C(F)(F)F)cn3)no2)CC1)c1cc(F)c(O)cc1F [Example 149, 2,5-difluoro-4-hydroxy-N-{[(1r,4r)-4-{3-[5-(trifluoromethyl)pyrazin-2-yl]-1,2,4-oxadiazol-5-yl}cyclohexyl]methyl} benzamide]
0.11 µM	O=C(NC[C@H]1CC[C@H](n2cc3cc(-c4ncccn4)ccc3n2)CC1)c1cc(F)c(O)c(F)c1 [Example 154, 3,5-difluoro-4-hydroxy-N-({(1r,4r)-4-[5-(pyrimidin-2-yl)-2H-indazol-2-yl]cyclohexyl}methyl) benzamide]
0.12 µM	O=C(NC[C@H]1CC[C@H](n2cc3cc(-c4cscn4)ccc3n2)CC1)c1cc(F)c(O)c(F)c1 [Example 155, 3,5-difluoro-4-hydroxy-N-({(1r,4r)-4-[5-(1,3-thiazol-4-yl)-2H-indazol-2-yl]cyclohexyl}methyl) benzamide]
0.17 µM	N#Cc1cccc(-c2ccc3nn([C@H]4CC[C@H](CNC(=O)c5cc(F)c(O)c(F)c5)CC4)cc3c2)c1 [Example 156, N-({(1r,4r)-4-[5-(3-cyanophenyl)-2H-indazol-2-yl]cyclohexyl}methyl)-3,5-difluoro-4-hydroxybenzamide]
0.27 µM	O=C(NC[C@H]1CC[C@H](n2cc3cc(-c4cncnc4)ccc3n2)CC1)c1cc(F)c(O)c(F)c1 [Example 157, 3,5-difluoro-4-hydroxy-N-({(1r,4r)-4-[5-(pyrimidin-5-yl)-2H-indazol-2-yl]cyclohexyl}methyl) benzamide, trifluoroacetate salt]
0.19 µM	O=C(NC[C@H]1CC[C@H](n2cc3ccc(-n4cccn4)cc3n2)CC1)c1cc(F)c(O)c(F)c1F [Example 158, 2,3,5-trifluoro-4-hydroxy-N-({(1r,4r)-4-[6-(1H-pyrazol-1-yl)-2H-indazol-2-yl]cyclohexyl}methyl) benzamide, trifluoroacetate salt]
0.091 µM	Cn1cc(-c2ccc3nn([C@H]4CC[C@H](CNC(=O)c5cc(F)c(O)c(F)c5)CC4)cc3c2)cn1 [Example 159, 3,5-difluoro-4-hydroxy-N-({(1r,4r)-4-[5-(1-methyl-1H-pyrazol-4-yl)-2H-indazol-2-yl]cyclohexyl}methyl) benzamide, trifluoroacetate salt]
0.4 µM	O=C(NC[C@H]1CC[C@H](n2cc3ccc(-c4cnn(CCO)c4)cc3n2)CC1)c1cc(F)c(O)c(F)c1 [Example 160, 3,5-difluoro-4-hydroxy-N-{[(1r,4r)-4-{6-[1-(2-hydroxyethyl)-1H-pyrazol-4-yl]-2H-indazol-2-yl}cyclo-hexyl]methyl} benzamide, trifluoroacetate salt]
